Reference: PubChem BioAssay (NCI)
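96-well plates; 48 h exposure; 5 concentrations. Endpoints by linear interpolation between flanking doses. Not reached: highest tested concentration assigned. The concentration for full growth arrest is given as TGI.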

Columns and labels:
Assay in all cases: inhibition of tumour cell growth, NCI panel, 48 h
NCI-H23 lung = system: NCI-H23 lung
SN12C renal = system: SN12C renal
COLO 205 colon = system: COLO 205 colon
A549 NSCLC = system: A549 NSCLC
SK-MEL-28 melanoma = system: SK-MEL-28 melanoma
HL-60(TB) leukemia = system: HL-60(TB) leukemia
SK-MEL-5 melanoma = system: SK-MEL-5 melanoma
HCT-15 colon = system: HCT-15 colon
786-0 renal = system: 786-0 renal
IGROV1 ovarian = system: IGROV1 ovarian
NCI-H522 lung = system: NCI-H522 lung
PC-3 prostate = system: PC-3 prostate
MDA-N = system: MDA-N
HOP-92 NSCLC = system: HOP-92 NSCLC
HS 578T breast = system: HS 578T breast
MDA-MB-435 = system: MDA-MB-435
SF-268 CNS = system: SF-268 CNS
LOX IMVI melanoma = system: LOX IMVI melanoma
T-47D breast = system: T-47D breast
OVCAR-8 ovarian = system: OVCAR-8 ovarian
HT29 colon = system: HT29 colon
NCI/ADR-RES ovarian = system: NCI/ADR-RES ovarian
UACC-62 melanoma = system: UACC-62 melanoma
K-562 leukemia = system: K-562 leukemia
RXF 393 renal = system: RXF 393 renal
U251 CNS = system: U251 CNS
A498 renal = system: A498 renal
NCI-H460 lung = system: NCI-H460 lung
SNB-75 CNS = system: SNB-75 CNS
SR leukemia = system: SR leukemia
CCRF-CEM leukemia = system: CCRF-CEM leukemia
SF-295 CNS = system: SF-295 CNS
DU-145 prostate = system: DU-145 prostate
HCT-116 colon = system: HCT-116 colon
MCF7 breast = system: MCF7 breast
SK-MEL-2 melanoma = system: SK-MEL-2 melanoma
KM12 colon = system: KM12 colon
MOLT-4 leukemia = system: MOLT-4 leukemia
UACC-257 melanoma = system: UACC-257 melanoma
CAKI-1 renal = system: CAKI-1 renal
SF-539 CNS = system: SF-539 CNS
OVCAR-5 ovarian = system: OVCAR-5 ovarian
M14 melanoma = system: M14 melanoma
HOP-62 NSCLC = system: HOP-62 NSCLC
UO-31 renal = system: UO-31 renal
SW-620 colon = system: SW-620 colon
ACHN renal = system: ACHN renal
RPMI-8226 leukemia = system: RPMI-8226 leukemia
SNB-19 CNS = system: SNB-19 CNS
TK-10 renal = system: TK-10 renal
MALME-3M melanoma = system: MALME-3M melanoma
SK-OV-3 ovarian = system: SK-OV-3 ovarian
EKVX NSCLC = system: EKVX NSCLC
BT-549 breast = system: BT-549 breast
OVCAR-3 ovarian = system: OVCAR-3 ovarian
MDA-MB-231 breast = system: MDA-MB-231 breast
NCI-H226 lung = system: NCI-H226 lung
HCC-2998 colon = system: HCC-2998 colon
OVCAR-4 ovarian = system: OVCAR-4 ovarian

Structure (SMILES): COc1cc(O)cc2oc(-c3ccc(O)cc3)cc(=O)c12
- TGI (NCI-H23 lung): > 100 µM
- TGI (SN12C renal): > 100 µM
- TGI (COLO 205 colon): > 100 µM
- TGI (A549 NSCLC): > 100 µM
- TGI (SK-MEL-28 melanoma): > 100 µM
- TGI (HL-60(TB) leukemia): > 100 µM
- TGI (SK-MEL-5 melanoma): > 100 µM
- TGI (HCT-15 colon): > 100 µM
- TGI (786-0 renal): > 100 µM
- TGI (IGROV1 ovarian): > 100 µM
- TGI (NCI-H522 lung): > 100 µM
- TGI (PC-3 prostate): > 100 µM
- TGI (MDA-N): > 100 µM
- TGI (HOP-92 NSCLC): > 100 µM
- TGI (HS 578T breast): > 100 µM
- TGI (MDA-MB-435): > 100 µM
- TGI (SF-268 CNS): > 100 µM
- TGI (LOX IMVI melanoma): > 100 µM
- TGI (T-47D breast): > 100 µM
- TGI (OVCAR-8 ovarian): > 100 µM
- TGI (HT29 colon): > 100 µM
- TGI (NCI/ADR-RES ovarian): > 100 µM
- TGI (UACC-62 melanoma): > 100 µM
- TGI (K-562 leukemia): > 100 µM
- TGI (RXF 393 renal): > 100 µM
- TGI (U251 CNS): > 100 µM
- TGI (A498 renal): 78.3 µM
- TGI (NCI-H460 lung): > 100 µM
- TGI (SNB-75 CNS): 62.7 µM
- TGI (SR leukemia): > 100 µM
- TGI (CCRF-CEM leukemia): > 100 µM
- TGI (SF-295 CNS): > 100 µM
- TGI (DU-145 prostate): > 100 µM
- TGI (HCT-116 colon): > 100 µM
- TGI (MCF7 breast): > 100 µM
- TGI (SK-MEL-2 melanoma): > 100 µM
- TGI (KM12 colon): > 100 µM
- TGI (MOLT-4 leukemia): > 100 µM
- TGI (UACC-257 melanoma): > 100 µM
- TGI (CAKI-1 renal): > 100 µM
- TGI (SF-539 CNS): > 100 µM
- TGI (OVCAR-5 ovarian): > 100 µM
- TGI (M14 melanoma): > 100 µM
- TGI (HOP-62 NSCLC): > 100 µM
- TGI (UO-31 renal): > 100 µM
- TGI (SW-620 colon): > 100 µM
- TGI (ACHN renal): > 100 µM
- TGI (RPMI-8226 leukemia): > 100 µM
- TGI (SNB-19 CNS): > 100 µM
- TGI (TK-10 renal): > 100 µM
- TGI (MALME-3M melanoma): > 100 µM
- TGI (SK-OV-3 ovarian): > 100 µM
- TGI (EKVX NSCLC): > 100 µM
- TGI (BT-549 breast): > 100 µM
- TGI (OVCAR-3 ovarian): > 100 µM
- TGI (MDA-MB-231 breast): > 100 µM

Structure (SMILES): CCOC(=O)C(=Cc1ccccc1Cl)C(=O)OCC
- TGI (NCI-H23 lung): 3.83 µM
- TGI (SN12C renal): 3.91 µM
- TGI (COLO 205 colon): 3.02 µM
- TGI (A549 NSCLC): 5.21 µM
- TGI (SK-MEL-28 melanoma): 3.53 µM
- TGI (HL-60(TB) leukemia): 3.83 µM
- TGI (SK-MEL-5 melanoma): 3.6 µM
- TGI (HCT-15 colon): 4.83 µM
- TGI (786-0 renal): 2.82 µM
- TGI (IGROV1 ovarian): 7.31 µM
- TGI (NCI-H522 lung): 4.02 µM
- TGI (PC-3 prostate): 4.3 µM
- TGI (MDA-N): 4.93 µM
- TGI (HOP-92 NSCLC): 4.96 µM
- TGI (HS 578T breast): > 10 µM
- TGI (MDA-MB-435): 3.29 µM
- TGI (NCI-H226 lung): 5.56 µM
- TGI (SF-268 CNS): 6.05 µM
- TGI (LOX IMVI melanoma): 4.5 µM
- TGI (T-47D breast): 8.86 µM
- TGI (OVCAR-8 ovarian): 2.12 µM
- TGI (HT29 colon): 3.3 µM
- TGI (NCI/ADR-RES ovarian): 5.97 µM
- TGI (UACC-62 melanoma): 3.67 µM
- TGI (K-562 leukemia): 5.28 µM
- TGI (RXF 393 renal): 3.78 µM
- TGI (U251 CNS): 3.07 µM
- TGI (A498 renal): 5 µM
- TGI (NCI-H460 lung): 7.22 µM
- TGI (SNB-75 CNS): 0.617 µM
- TGI (SR leukemia): > 10 µM
- TGI (CCRF-CEM leukemia): 4.69 µM
- TGI (SF-295 CNS): 6.31 µM
- TGI (DU-145 prostate): 3.96 µM
- TGI (HCT-116 colon): 1.88 µM
- TGI (SK-MEL-2 melanoma): 4.59 µM
- TGI (KM12 colon): 2.67 µM
- TGI (MOLT-4 leukemia): 6.27 µM
- TGI (UACC-257 melanoma): 3.21 µM
- TGI (CAKI-1 renal): 4.27 µM
- TGI (HCC-2998 colon): > 10 µM
- TGI (SF-539 CNS): 4.13 µM
- TGI (OVCAR-5 ovarian): 4.13 µM
- TGI (M14 melanoma): 2.95 µM
- TGI (HOP-62 NSCLC): 4.05 µM
- TGI (UO-31 renal): 3.2 µM
- TGI (SW-620 colon): 2.6 µM
- TGI (OVCAR-4 ovarian): 5.05 µM
- TGI (ACHN renal): 7.62 µM
- TGI (RPMI-8226 leukemia): 4.87 µM
- TGI (SNB-19 CNS): 3.53 µM
- TGI (MALME-3M melanoma): 3.58 µM
- TGI (SK-OV-3 ovarian): > 10 µM
- TGI (EKVX NSCLC): 7.39 µM
- TGI (BT-549 breast): 4.59 µM
- TGI (OVCAR-3 ovarian): 2.76 µM
- TGI (MDA-MB-231 breast): 3.39 µM
